Experiments:
[1] = system: transplanted human mammary carcinoma which expresses EGF receptor tyrosine kinase; conditions: athymic nude mice; Toi et al. 1990; cited from earlier work
[2] = system: another carcinoma which does not express EGF receptor tyrosine kinase; conditions: Toi et al. 1990; cited from earlier work
[3] = biological target: T1, EGF receptor tyrosine kinase (Homo sapiens, UniProt P00533); experiment: Test (a): in vitro inhibition of EGF receptor tyrosine kinase; type: biochemical, human (A-431 cells, derived from human vulval carcinoma); conditions: A-431 cell enzyme, [γ-32P]ATP/peptide phosphorylation, 25° C. 10 minutes
T1 construct: Receptor tyrosine kinase was obtained in partially purified form from A-431 cells; endogenous in cells; host or cells: A-431 cells (human vulval carcinoma); Triton X-100 solubilised membrane fraction
Description: (a) An in vitro assay which determines the ability of a test compound to inhibit the enzyme EGF receptor tyrosine kinase. Receptor tyrosine kinase was obtained in partially purified form from A-431 cells (derived from human vulval carcinoma) by procedures related to those described by Carpenter et al., J. Biol. Chem., 1979, 254, 4884, Cohen et al., J. Biol. Chem., 1982, 257, 1523 and by Braun et al., J. Biol. Chem., 1984, 259, 2051.
A-431 cells were grown to confluence using Dulbecco's modified Eagle's medium (DMEM) containing 5% fetal calf serum (FCS). The obtained cells were homogenised in a hypotonic borate/EDTA buffer at pH 10.1. The homogenate was centrifuged at 400 g for 10 minutes at 0°-4° C. The supernatant was centrifuged at 25,000 g for 30 minutes at 0°-4° C. […]
The test compound/EGF mixture solution (5 μl) was added to the test enzyme solution (10 μl) and the mixture was incubated at 0-4° C. for 30 minutes. […] Radioactivity present in the filter paper was measured using a liquid scintillation counter (Sequence A). […]
Receptor tyrosine kinase inhibition was calculated as follows: [formula]
The extent of inhibition was then determined at a range of concentrations of test compound to give an IC50 value.

[4] = system: human naso-pharyngeal cancer cell line KB; experiment: Test (b): inhibition of EGF-stimulated growth of the cancer cell line KB; type: cell-based; conditions: 72 h, KB cell growth with EGF (10 ng/ml), 3 days, MTT
Description: (b) An in vitro assay which determines the ability of a test compound to inhibit the EGF-stimulated growth of the human naso-pharyngeal cancer cell line KB.
KB cells were seeded into wells at a density of 1×10^4 -1.5×10^4 cells per well and grown for 24 hours in DMEH supplemented with 5% FCS (charcoal-stripped). Cell growth was determined after incubation for 3 days by the extent of metabolism of MTT tetrazolium dye to furnish a bluish colour. Cell growth was then determined in the presence of EGF (10 ng/ml) or in the presence of EGF (10 ng/ml) and a test compound at a range of concentrations. An IC50 value could then be calculated.

liver hepatocyte growth = experiment: Test (c): inhibition of TGFα-stimulated liver hepatocyte growth in rats; type: in vivo; conditions: Rattus norvegicus, male rats, usually oral, TGFα 400 μg/kg subcutaneously, BrdU uptake, approximate ED50
Description: (c) An in vivo assay in a group of male rats which determines the ability of a test compound (usually administered orally as a ball-milled suspension in 0.5% polysorbate) to inhibit the stimulation of liver hepatocyte growth caused by the administration of the growth factor TGFα (400 μg/kg subcutaneously, usually dosed twice, 3 and 7 hours respectively after the administration of the test compound).
In a control group of rats, the administration of TGFα causes on average a 5-fold stimulation of liver hepatocyte growth.
Cell-growth in the control and test animals is determined as follows:
On the morning of the day after the dosing of the test compound (or 0.5% polysorbate in the control group), the animals are dosed with bromodeoxyuridine (BrdU; 100 mg/kg intraperitoneally). The animals are killed four hours later and the livers are excised. […] Further tests were carried out using a range of doses of the test compounds to allow the calculation of an approximate ED50 value for the inhibition of liver hepatocyte proliferation as determined by inhibition of the uptake of BrdU.

T1 sequence (P00533 25-1210): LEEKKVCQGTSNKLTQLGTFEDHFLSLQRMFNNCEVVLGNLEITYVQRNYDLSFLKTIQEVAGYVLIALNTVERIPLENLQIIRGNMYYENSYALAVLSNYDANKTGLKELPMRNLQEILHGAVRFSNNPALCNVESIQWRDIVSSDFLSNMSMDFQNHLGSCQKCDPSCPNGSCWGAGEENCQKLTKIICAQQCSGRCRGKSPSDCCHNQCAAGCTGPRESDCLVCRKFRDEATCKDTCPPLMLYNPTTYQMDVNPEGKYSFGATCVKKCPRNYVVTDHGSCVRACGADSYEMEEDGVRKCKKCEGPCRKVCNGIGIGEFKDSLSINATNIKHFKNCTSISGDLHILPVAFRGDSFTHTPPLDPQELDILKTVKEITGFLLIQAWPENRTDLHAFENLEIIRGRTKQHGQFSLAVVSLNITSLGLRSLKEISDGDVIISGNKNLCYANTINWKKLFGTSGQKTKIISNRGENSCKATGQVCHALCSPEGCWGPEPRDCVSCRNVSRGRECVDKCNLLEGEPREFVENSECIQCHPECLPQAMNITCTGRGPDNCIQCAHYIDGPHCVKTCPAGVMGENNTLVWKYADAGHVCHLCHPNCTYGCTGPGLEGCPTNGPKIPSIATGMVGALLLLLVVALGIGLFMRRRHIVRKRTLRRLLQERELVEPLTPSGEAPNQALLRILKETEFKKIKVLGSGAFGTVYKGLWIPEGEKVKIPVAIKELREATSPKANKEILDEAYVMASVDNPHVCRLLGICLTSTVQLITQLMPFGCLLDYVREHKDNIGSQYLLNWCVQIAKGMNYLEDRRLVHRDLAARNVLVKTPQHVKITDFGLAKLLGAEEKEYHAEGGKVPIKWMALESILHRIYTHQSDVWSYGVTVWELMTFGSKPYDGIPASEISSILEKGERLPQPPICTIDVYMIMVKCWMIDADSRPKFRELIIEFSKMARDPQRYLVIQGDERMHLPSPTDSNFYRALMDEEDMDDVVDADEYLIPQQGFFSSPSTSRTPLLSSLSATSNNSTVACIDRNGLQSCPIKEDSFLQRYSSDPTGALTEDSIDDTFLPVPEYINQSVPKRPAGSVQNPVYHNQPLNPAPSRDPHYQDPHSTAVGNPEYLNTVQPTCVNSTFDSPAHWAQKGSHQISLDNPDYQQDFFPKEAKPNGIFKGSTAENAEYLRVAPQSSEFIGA

| SMILES | effect on growth of transplanted human mammary carcinoma expressing EGF receptor tyrosine kinase [1] | effect on growth of another carcinoma which does not express EGF receptor tyrosine kinase [2] | IC50 [3] [nM] | IC50 [4] [nM] | ED50 (liver hepatocyte growth) [mg/kg] |
| --- | --- | --- | --- | --- | --- |
| O=CN/C=C/c1cc(O)ccc1O [erbstatin] | specifically attenuates the growth | without effect on the growth | – | – | – |
| Cc1cccc(Nc2cc(Nc3cccc(C)c3)ncn2)c1 [4,6-di-(3'-methylanilino)pyrimidine] | – | – | 240 | 1100 | < 12.5 |
| Cc1cccc(Nc2cc(Nc3ccc(OCCO)cc3)ncn2)c1 [4-[4'-(2-hydroxyethoxy)anilino]6-(3'-methylanilino)pyrimidine] | – | – | – | 1070 | < 12.5 |
| Cc1cccc(Nc2cc(Nc3ccc(OCC(O)CN(C)C)cc3)ncn2)c1 (stereo not drawn) [4-[4'-(3-dimethylamino-2-hydroxypropoxy)anilino]6-(3'-methylanilino)pyrimidine] | – | – | 10 | 310 | – |

Reference: patent US5880130A, “4,6-dianilino-pyrimidine derivatives, their preparation and their use as tyrosine kinase inhibitors” (Zeneca Limited, priority 1993, dated 1999)
